# Test results taken from publication PMC11189555, “Aryl amino acetamides prevent Plasmodium falciparum ring development via targeting the lipid-transfer protein PfSTART1” (Nature Communications, 2024).
# “Also recorded” adds a separate entry of the source.
# Legend:
# [1] = tested on: PopD C6 M-833 resistant clone (PfSTART1 N309K); assay: Growth inhibition assay (72 h, LDH activity); type: cell-based, Plasmodium falciparum
# Outline: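 Synchronised ring-stage 3D7-derived clones (0.3-0.6% parasitemia, 2% haematocrit) grown 72 h in compound serial dilutions, some with 0, 0.25 or 2.5 mM glucosamine. Growth read as LDH activity after freeze-thaw (Malstat/NBT, A650), normalised to DMSO and uninfected RBC; EC50 from variable-slope log(inhibitor) fit.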
# P. falciparum merozoites = tested on: P. falciparum merozoites; design: method as in earlier work; conditions: live cell imaging; ref 11 (Dans et al 2020); cited from earlier work
smiles,measurement,setting,value
Cc1cc(Cl)c(S(=O)(=O)N2CCCC2)cc1OCC(=O)NC1CCCCC1 [M-833],Normalised to DMSO,"[1]; M-833 0.0390625 uM, Pop D-C6 replicate 1",106.597
same,Normalised to DMSO,"[1]; M-833 0.0390625 uM, Pop D-C6 replicate 3",109.19
same,Normalised to DMSO,"[1]; M-833 0.078125 uM, Pop D-C6 replicate 1",104.398
same,Normalised to DMSO,"[1]; M-833 0.078125 uM, Pop D-C6 replicate 3",106.818
same,Normalised to DMSO,"[1]; M-833 0.15625 uM, Pop D-C6 replicate 1",106.528
same,Normalised to DMSO,"[1]; M-833 0.15625 uM, Pop D-C6 replicate 3",112.747
same,Normalised to DMSO,"[1]; M-833 0.3125 uM, Pop D-C6 replicate 1",101.389
same,Normalised to DMSO,"[1]; M-833 0.3125 uM, Pop D-C6 replicate 3",96.5909
same,Normalised to DMSO,"[1]; M-833 0.625 uM, Pop D-C6 replicate 1",99.6991
same,Normalised to DMSO,"[1]; M-833 0.625 uM, Pop D-C6 replicate 3",97.6285
same,Normalised to DMSO,"[1]; M-833 1.25 uM, Pop D-C6 replicate 1",88.1713
same,Normalised to DMSO,"[1]; M-833 1.25 uM, Pop D-C6 replicate 3",89.9209
same,Normalised to DMSO,"[1]; M-833 2.5 uM, Pop D-C6 replicate 1",68.7963
same,Normalised to DMSO,"[1]; M-833 2.5 uM, Pop D-C6 replicate 3",69.4664
same,Normalised to DMSO,"[1]; M-833 5 uM, Pop D-C6 replicate 1",41.5972
same,Normalised to DMSO,"[1]; M-833 5 uM, Pop D-C6 replicate 3",40.2668
same,Normalised to DMSO,"[1]; M-833 10 uM, Pop D-C6 replicate 1",22.7778
same,Normalised to DMSO,"[1]; M-833 10 uM, Pop D-C6 replicate 3",32.2628
same,inhibition at 0.0390625 µM,"[1]; Plasmodium falciparum, M-833 0.0390625 uM, Pop D-C6 replicate 1",-6.6%
same,inhibition at 0.0390625 µM,"[1]; Plasmodium falciparum, M-833 0.0390625 uM, Pop D-C6 replicate 3",-9.19%
same,inhibition at 0.078125 µM,"[1]; Plasmodium falciparum, M-833 0.078125 uM, Pop D-C6 replicate 1",-4.4%
same,inhibition at 0.078125 µM,"[1]; Plasmodium falciparum, M-833 0.078125 uM, Pop D-C6 replicate 3",-6.82%
same,inhibition at 0.15625 µM,"[1]; Plasmodium falciparum, M-833 0.15625 uM, Pop D-C6 replicate 1",-6.53%
same,inhibition at 0.15625 µM,"[1]; Plasmodium falciparum, M-833 0.15625 uM, Pop D-C6 replicate 3",-12.7%
same,inhibition at 0.3125 µM,"[1]; Plasmodium falciparum, M-833 0.3125 uM, Pop D-C6 replicate 1",-1.39%
same,inhibition at 0.3125 µM,"[1]; Plasmodium falciparum, M-833 0.3125 uM, Pop D-C6 replicate 3",3.41%
same,inhibition at 0.625 µM,"[1]; Plasmodium falciparum, M-833 0.625 uM, Pop D-C6 replicate 1",0.301%
same,inhibition at 0.625 µM,"[1]; Plasmodium falciparum, M-833 0.625 uM, Pop D-C6 replicate 3",2.37%
same,inhibition at 1.25 µM,"[1]; Plasmodium falciparum, M-833 1.25 uM, Pop D-C6 replicate 1",11.8%
same,inhibition at 1.25 µM,"[1]; Plasmodium falciparum, M-833 1.25 uM, Pop D-C6 replicate 3",10.1%
same,inhibition at 2.5 µM,"[1]; Plasmodium falciparum, M-833 2.5 uM, Pop D-C6 replicate 1",31.2%
same,inhibition at 2.5 µM,"[1]; Plasmodium falciparum, M-833 2.5 uM, Pop D-C6 replicate 3",30.5%
same,inhibition at 5 µM,"[1]; Plasmodium falciparum, M-833 5 uM, Pop D-C6 replicate 1",58.4%
same,inhibition at 5 µM,"[1]; Plasmodium falciparum, M-833 5 uM, Pop D-C6 replicate 3",59.7%
same,inhibition at 10 µM,"[1]; Plasmodium falciparum, M-833 10 uM, Pop D-C6 replicate 1",77.2%
same,inhibition at 10 µM,"[1]; Plasmodium falciparum, M-833 10 uM, Pop D-C6 replicate 3",67.7%
same,inhibition at 0.0390625 µM,"[1]; Plasmodium falciparum, Pop D-C6 replicate 1, M-833 0.0390625 uM",-0.105%
same,inhibition at 0.078125 µM,"[1]; Plasmodium falciparum, Pop D-C6 replicate 1, M-833 0.078125 uM",-0.157%
same,inhibition at 0.15625 µM,"[1]; Plasmodium falciparum, Pop D-C6 replicate 1, M-833 0.15625 uM",1.36%
same,inhibition at 0.3125 µM,"[1]; Plasmodium falciparum, Pop D-C6 replicate 1, M-833 0.3125 uM",4.07%
same,inhibition at 0.625 µM,"[1]; Plasmodium falciparum, Pop D-C6 replicate 1, M-833 0.625 uM",7.36%
same,inhibition at 1.25 µM,"[1]; Plasmodium falciparum, Pop D-C6 replicate 1, M-833 1.25 uM",9.35%
same,inhibition at 2.5 µM,"[1]; Plasmodium falciparum, Pop D-C6 replicate 1, M-833 2.5 uM",19.4%
same,inhibition at 5 µM,"[1]; Plasmodium falciparum, Pop D-C6 replicate 1, M-833 5 uM",34.9%
same,inhibition at 10 µM,"[1]; Plasmodium falciparum, Pop D-C6 replicate 1, M-833 10 uM",62%
same,EC50,"[1]; Plasmodium falciparum, read-out: EC50 (95% confidence interval)",4.19 µM
same,Normalised to DMSO,"[1]; Pop D-C6 replicate 1, M-833 0.0390625 uM",100.105
same,Normalised to DMSO,"[1]; Pop D-C6 replicate 1, M-833 0.078125 uM",100.157
same,Normalised to DMSO,"[1]; Pop D-C6 replicate 1, M-833 0.15625 uM",98.6386
same,Normalised to DMSO,"[1]; Pop D-C6 replicate 1, M-833 0.3125 uM",95.9333
same,Normalised to DMSO,"[1]; Pop D-C6 replicate 1, M-833 0.625 uM",92.6433
same,Normalised to DMSO,"[1]; Pop D-C6 replicate 1, M-833 1.25 uM",90.6536
same,Normalised to DMSO,"[1]; Pop D-C6 replicate 1, M-833 2.5 uM",80.5829
same,Normalised to DMSO,"[1]; Pop D-C6 replicate 1, M-833 5 uM",65.0842
same,Normalised to DMSO,"[1]; Pop D-C6 replicate 1, M-833 10 uM",37.9963
same,effect on merozoite invasion and ring differentiation,P. falciparum merozoites,invasion itself was slowed down but not reduced; also recorded: failed to differentiate into an amoeboid ring-stage parasite
